Data published in patent US4044051A, “9[2-(1-Al koxy-ethyl)-5,5-dimethyl-cyclopent-1-en-1-yl]-3,7-dimethyl-nona-2,4,6,8-t etraen acid compounds” (Hoffmann-La Roche Inc., priority 1971, dated 1977).

Key:
[1] = acute toxicity (delayed toxicity in mice after 20 days), i.p. in rape oil; format: in vivo; details: mouse, ip
Description: (§1) The toxicity of the polyene compound of formula I is slight.

mice = test: as above; format: in vivo
Description: as §1

SMILES: COC(C)C1=C(C=CC(C)=CC=CC(C)=CC(=O)O)C(C)(C)CC1 (centres unmarked) [9-[2-(1-methoxyethyl)-5,5-dimethyl-cyclopent-1-en-1-y1]-3,7-dimethyl-nona-2,4,6,8-tetraen-1-acid]
- LD50 at 24 h ([1]; after 1 day): > 4000 mg/kg
- LD50 at 240 h ([1]; after 10 days): 350 mg/kg
- LD10 (mice; after 1 day): > 4000 mg/kg
- LD90 (mice; after 1 day): > 4000 mg/kg
- LD10 (mice; after 10 days): 290 mg/kg
- LD90 (mice; after 10 days): 430 mg/kg
- LD10 (mice; after 20 days): 290 mg/kg
- LD90 (mice; after 20 days): 430 mg/kg
